In this experiment the target is T1, TSHR (Homo sapiens, UniProt P16473).
T1 construct: expressed in transfected cells
T1 sequence (P16473 21-764): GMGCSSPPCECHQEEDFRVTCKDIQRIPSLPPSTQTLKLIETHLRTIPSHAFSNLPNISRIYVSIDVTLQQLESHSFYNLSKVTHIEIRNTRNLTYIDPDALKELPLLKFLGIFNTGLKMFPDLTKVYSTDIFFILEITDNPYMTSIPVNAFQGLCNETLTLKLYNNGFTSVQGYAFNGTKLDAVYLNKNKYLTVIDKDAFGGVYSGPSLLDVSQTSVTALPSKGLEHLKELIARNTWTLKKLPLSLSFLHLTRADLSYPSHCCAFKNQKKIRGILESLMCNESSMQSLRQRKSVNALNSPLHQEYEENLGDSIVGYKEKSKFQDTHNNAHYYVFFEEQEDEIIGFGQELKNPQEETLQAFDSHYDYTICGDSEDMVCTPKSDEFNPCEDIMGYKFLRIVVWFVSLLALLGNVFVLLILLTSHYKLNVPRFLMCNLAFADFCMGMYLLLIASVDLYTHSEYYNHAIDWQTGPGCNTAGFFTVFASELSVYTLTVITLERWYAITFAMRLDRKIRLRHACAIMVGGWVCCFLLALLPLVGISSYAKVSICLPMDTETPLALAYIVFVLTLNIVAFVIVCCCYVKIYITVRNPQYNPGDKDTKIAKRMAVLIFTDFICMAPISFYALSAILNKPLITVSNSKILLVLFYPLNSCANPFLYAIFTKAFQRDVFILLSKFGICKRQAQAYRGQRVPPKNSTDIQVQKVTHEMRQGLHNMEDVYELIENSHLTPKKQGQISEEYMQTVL
As to the kind of experiment: cAMP accumulation radioimmunoassay (RIA), inhibition of TSH-induced cAMP production in HEK-293 cells stably expressing TSHR. It counts as cell-based. The arrangement: antagonistic activity (% inhibition): concentration or dose not given beside the values. The settings on record: inhibiting cAMP stimulation by TSH, radioimmunoassay. The method, then:
HEK-293 cells stably expressing TSHR, FSHR, LHGCR or CRF1R were cultured for 48 h and stimulated for 1 h at 37° C. with stimulation buffer (DMEM supplemented with 10 mM HEPES, 0.5% BSA, 0.25 mM 3-isobutyl-1-methylxanthine) containing the ligands as indicated. After stimulation medium was aspirated and reactions were stopped by lysis of the cells with 0.1% trifluoroacetic acid, 0.005% Triton X-100 for 30 min at 4° C. Supernatants were collected and heated at 95° C. for 10 min, dried in a rotation vacuum concentrator (Alpha-RCV, Christ) and finally stored at −20° C. until use. After reconstitution and acetylation of the samples (Jäschke et al. 2006), the cAMP content was determined using cAMP-^125I-tyrosyl methyl ester (10,000 cpm, IBL) and polyclonal rabbit anti cAMP antibodies. The radioactivity of the precipitate was determined in a γ-counter.
For the Secondary Screening cAMP accumulation was measured by radioimmunoassay (RIA) in HEK-293-TSHR cells as described before.
For the secondary screening we used a very sensitive in vitro technique, the radioimmunoassay. This assay was established and performed in HEK-293 cell line stably expressing TSHR.
Therefore RIA was used to measure the cAMP accumulation upon stimulation with TSH (EC80 value) and confirmed the desired effect for S4 and S9 with a clear decrease of cAMP production.
(cAMP levels reflect the balance of adenylyl cyclase and phosphodiesterase activity.)
Regarding `Cc1ccc(N2C(=O)[C@@H]3[C@H]4C[C@H]([C@@H]5Sc6[nH]c(=O)sc6[C@@H](c6ccccc6)[C@H]45)[C@@H]3C2=O)cc1` (racemic) [Compound S90, (4aR,5R,5aS,8aS,9S,9aR,10S)-10-phenyl-7-(p-tolyl)-3,4a,5,5a,8a,9,9a,10-octahydro-5,9-methanothiazolo[5′,4′:5,6]thiopyrano[2,3-f]isoindole-2,6,8(7H)-trione Compound with (4aS,5S,5aR,8aR,9R,9aS,10R)-10-phenyl-7-(p-tolyl)-3,4a,5,5a,8a,9,9a,10-octahydro-5,9-methanothiazolo[5′,4′:5,6]thiopyrano[2,3-f]isoindole-2,6,8(7H)-trione (1:1)], the “antagonistic activity (% inhibition)” value is 53%.
Take `COc1ccc(N2C(=O)[C@@H]3[C@H]4C[C@H]([C@@H]5Sc6[nH]c(=O)sc6[C@@H](c6ccccc6)[C@H]45)[C@@H]3C2=O)cc1` (racemic) [Compound S89, (4aR,5R,5aS,8aS,9S,9aR,10S)-7-(4-methoxyphenyl)-10-phenyl-3,4a,5,5a,8a,9,9a,10-octahydro-5,9-methanothiazolo[5′,4′:5,6]thiopyrano[2,3-t]isoindole-2,6,8(7H)-trione compound with (4aS,5S,5aR,8aR,9R,9aS,10R)-7-(4-methoxyphenyl)-10-phenyl-3,4a,5,5a,8a,9,9a,10-octahydro-5,9-methanothiazolo[5′,4′:5,6]thiopyrano[2,3-t]isoindole-2,6,8(7H)-trione (1:1)]: the “antagonistic activity (% inhibition)” value is 22%.
Under `O=C1[C@@H]2[C@H]3C[C@H]([C@@H]4Sc5[nH]c(=O)sc5[C@@H](c5cccc(O)c5)[C@H]34)[C@@H]2C(=O)N1c1ccccc1` (racemic) [Compound S125, (4aR,5R,5aS,8aS,9S,9aR,10S)-10-(3-hydroxyphenyl)-7-phenyl-3,4a,5,5a,8a,9,9a,10-octahydro-5,9-methanothiazolo[5′,4′:5,6]thiopyrano[2,3-f]isoindole-2,6,8(7H)-trione compound with (4aS,5S,5aR,8aR,9R,9aS,10R)-10-(3-hydroxyphenyl)-7-phenyl-3,4a,5,5a,8a,9,9a,10-octahydro-5,9-methanothiazolo[5′,4′:5,6]thiopyrano[2,3-f]isoindole-2,6,8(7H)-trione (1:1)] stands 34%.
Under `CC(=O)c1ccc(N2C(=O)[C@@H]3[C@H]4C[C@H]([C@@H]5Sc6[nH]c(=O)sc6[C@@H](c6ccccc6)[C@H]45)[C@@H]3C2=O)cc1` (racemic) [Compound S80, (4aR,5R,5aS,8aS,9S,9aR,10S)-7-(4-acetylphenyl)-10-phenyl-3,4a,5,5a,8a,9,9a,10-octahydro-5,9-methanothiazolo[5′,4′:5,6]thiopyrano[2,3-f]isoindole-2,6,8(7H)-trione Compound with (4aS,5S,5aR,8aR,9R,9aS,10R)-7-(4-acetylphenyl)-10-phenyl-3,4a,5,5a,8a,9,9a,10-octahydro-5,9-methanothiazolo[5′,4′:5,6]thiopyrano[2,3-f]isoindole-2,6,8(7H)-trione (1:1)] stands 25%; under `O=C1[C@@H]2[C@H]3C[C@H]([C@@H]4Sc5[nH]c(=O)sc5[C@@H](c5ccccc5)[C@H]34)[C@@H]2C(=O)N1c1ccc(O)cc1` (racemic) [Compound S100, (4aR,5R,5aS,8aS,9S,9aR,10S)-7-(4-hydroxyphenyl)-10-phenyl-3,4a,5,5a,8a,9,9a,10-octahydro-5,9-methanothiazolo[5′,4′:5,6]thiopyrano[2,3-f]isoindole-2,6,8(7H)-trione compound with (4aS,5S,5aR,8aR,9R,9aS,10R)-7-(4-hydroxyphenyl)-10-phenyl-3,4a,5,5a,8a,9,9a,10-octahydro-5,9-methanothiazolo[5′,4′:5,6]thiopyrano[2,3-f]isoindole-2,6,8(7H)-trione (1:1)], 34%; under `O=C1[C@@H]2[C@H]3C[C@H]([C@@H]4Sc5[nH]c(=O)sc5[C@@H](c5ccc(F)cc5)[C@H]34)[C@@H]2C(=O)N1c1ccccc1` (racemic) [Compound S124, (4aR,5R,5aS,8aS,9S,9aR,10S)-10-(4-fluorophenyl)-7-phenyl-3,4a,5,5a,8a,9,9a,10-octahydro-5,9-methanothiazolo[5′,4′:5,6]thiopyrano[2,3-f]isoindole-2,6,8(7H)-trione compound with (4aS,5S,5aR,8aR,9R,9aS,10R)-10-(4-fluorophenyl)-7-phenyl-3,4a,5,5a,8a,9,9a,10-octahydro-5,9-methanothiazolo[5′,4′:5,6]thiopyrano[2,3-f]isoindole-2,6,8(7H)-trione (1:1)], 22%.
With `CN1CCN(c2ccc(N3C(=O)[C@@H]4[C@H]5C[C@H]([C@@H]6Sc7[nH]c(=O)sc7[C@@H](c7ccccc7)[C@H]56)[C@@H]4C3=O)cc2[N+](=O)[O-])CC1` [Compound S38, (4aS,5S,5aR,8aR,9R,9aS,10R)-7-(4-(4-methylpiperazin-1-yl)-3-nitrophenyl)-10-phenyl-3,4a,5,5a,8a,9,9a,10-octahydro-5,9-methanothiazolo[5′,4′:5,6]thiopyrano[2,3-f]isoindole-2,6,8(7H)-trione], the “antagonistic activity (% inhibition)” value is reported as 40%.
The figure for `O=C1[C@@H]2[C@H]3C[C@H]([C@@H]4Sc5[nH]c(=O)sc5[C@@H](c5ccc(O)cc5)[C@H]34)[C@@H]2C(=O)N1c1ccccc1` (racemic) [Compound S122, (4aR,5R,5aS,8aS,9S,9aR,10S)-10-(4-hydroxyphenyl)-7-phenyl-3,4a,5,5a,8a,9,9a,10-octahydro-5,9-methanothiazolo[5′,4′:5,6]thiopyrano[2,3-f]isoindole-2,6,8(7H)-trione compound with (4aS,5S,5aR,8aR,9R,9aS,10R)-10-(4-hydroxyphenyl)-7-phenyl-3,4a,5,5a,8a,9,9a,10-octahydro-5,9-methanothiazolo[5′,4′:5,6]thiopyrano[2,3-f]isoindole-2,6,8(7H)-trione (1:1)] is 38%; for `O=C1C2C3C=CC(C3)C2C(=O)N1c1ccc(N2CCOCC2)c([N+](=O)[O-])c1` (stereo not shown) [Compound S26] it is 35%; for `COC(=O)c1cccc(N2C(=O)[C@@H]3[C@H]4C[C@H]([C@@H]5Sc6[nH]c(=O)sc6[C@@H](c6ccccc6)[C@H]45)[C@@H]3C2=O)c1` (racemic) [Compound S96, methyl 3-((4aR,5R,5aS,8aS,9S,9aR,10S)-2,6,8-trioxo-10-phenyl-3,4a,5,5a,6,8,8a,9,9a,10-decahydro-5,9-methanothiazolo[5′,4′:5,6]thiopyrano[2,3-f]isoindol-7(2H)-yl)benzoate compound with methyl 3-((4aS,5S,5aR,8aR,9R,9aS,10R)-2,6,8-trioxo-10-phenyl-3,4a,5,5a,6,8,8a,9,9a,10-decahydro-5,9-methanothiazolo[5′,4′:5,6]thiopyrano[2,3-f]isoindol-7(2H)-yl)benzoate (1:1)] it is 34%.
For the compound `O=C1C2C3CC(C2C(=O)N1c1ccccc1)C1C(c2ccc(O)cc2)c2sc(=O)[nH]c2SC31` (stereo not shown) [Compound S19], the “antagonistic activity (% inhibition)” value stood at 50%.
Regarding `Nc1ccc(N2C(=O)[C@@H]3[C@H]4C[C@H]([C@@H]5Sc6[nH]c(=O)sc6[C@@H](c6ccccc6)[C@H]45)[C@@H]3C2=O)cc1` (racemic) [Compound S79, (4aR,5R,5aS,8aS,9S,9aR,10S)-7-(4-aminophenyl)-10-phenyl-3,4a,5,5a,8a,9,9a,10-octahydro-5,9-methanothiazolo[5′,4′:5,6]thiopyrano[2,3-f]isoindole-2,6,8(7H)-trione Compound with (4aS,5S,5aR,8aR,9R,9aS,10R)-7-(4-aminophenyl)-10-phenyl-3,4a,5,5a,8a,9,9a,10-octahydro-5,9-methanothiazolo[5′,4′:5,6]thiopyrano[2,3-t]isoindole-2,6,8(7H)-trione (1:1)], the “antagonistic activity (% inhibition)” value was 29%.
The figure for `CCOC(=O)N1CCN(c2ncc(N3C(=O)C4C(C3=O)[C@H]3C=C[C@@H]4C3)cc2[N+](=O)[O-])CC1` (stereo partly shown) [Compound S34] is 30%; for `COC(=O)c1ccc(N2C(=O)[C@@H]3[C@H]4C[C@H]([C@@H]5Sc6[nH]c(=O)sc6[C@@H](c6ccccc6)[C@H]45)[C@@H]3C2=O)cc1` (racemic) [Compound S87, methyl 4-((4aR,5R,5aS,8aS,9S,9aR,10S)-2,6,8-trioxo-10-phenyl-3,4a,5,5a,6,8,8a,9,9a,10-decahydro-5,9-methanothiazolo[5′,4′:5,6]thiopyrano[2,3-f]isoindol-7(2H)-yl)benzoate compound with methyl 4-((4aS,5S,5aR,8aR,9R,9aS,10R)-2,6,8-trioxo-10-phenyl-3,4a,5,5a,6,8,8a,9,9a,10-decahydro-5,9-methanothiazolo[5′,4′:5,6]thiopyrano[2,3-f]isoindol-7(2H)-yl)benzoate (1:1)] it is 29%.
As for `O=C1C2C3CC(C2C(=O)N1c1cccc(C(F)(F)F)c1)C1C(c2ccccc2)c2sc(=O)[nH]c2SC31` (stereo not shown) [Compound S21], the “antagonistic activity (% inhibition)” value turned out to be 55%.
The figure for `CCOC(=O)N1CCN(c2ncc(N3C(=O)[C@@H]4[C@H](C3=O)[C@H]3C=C[C@@H]4C3)cc2[N+](=O)[O-])CC1` [Compound S35] is 15%.

The values above are taken from patent publication US10596168B2, “Antagonists of the thyroid-stimulating hormone receptor (TSHR)” (Forschungsverbund Berlin e.V., priority 2016, dated 2020).
